Drawing on ChEMBL document CHEMBL1123798, “Stereocontrolled syntheses for the six diastereomeric 1,2-dihydroxy-4,5-diaminocyclohexanes: PtII complexes and P-388 antitumor properties” (J Med Chem, 1987), this text covers MST and T/C for one sequence.

Holding throughout (format): functional, organism-based
Conditions in all cases: Mus musculus

Assay [1] deals with P388. The assay can be described thus: Median survival time against P388 leukemia in CDF1 mice at a dose of 3 mg/kg administered intraperitoneally; […]. Also noted: dose 3 mg/kg.
The test system of assay [2] is P388. The assay can be described thus: Number of treated mice to that of control against P388 leukemia in CDF1 mice at a dose of 3 mg/kg administered intraperitoneally; active. Also noted: dose 3 mg/kg.
The test system of assay [3] is P388. Description: Number of treated mice to that of control against P388 leukemia in CDF1 mice at a dose of 1.5 mg/kg administered intraperitoneally; active. On the set-up: dose 1.5 mg/kg.
Assay [4] has as its system P388. The assay can be described thus: Median survival time against P388 leukemia in CDF1 mice at a dose of 6 mg/kg administered intraperitoneally; […]. Also noted: dose 6 mg/kg.
Assay [5] relates to P388. The assay can be described thus: Number of treated mice to that of control against P388 leukemia in CDF1 mice at a dose of 6 mg/kg administered intraperitoneally; active. Also noted: dose 6 mg/kg.
Assay [6] deals with P388. Description: Median survival time against P388 leukemia in CDF1 mice at a dose of 1.5 mg/kg administered intraperitoneally; […]. On the set-up: dose 1.5 mg/kg.

For the sequence CISPLATIN, the results for the MST with P388 [1], in the assay on P388 [4] and in the assay on P388 [6] were 18.5, 24.5 and 15.5, respectively. The T/C with P388 [2] is 188; in the assay on P388 [3], 158; with P388 [5] it was 249.
